From patent US20100216889A1, “PROLONGED EFFECT DISINFECTANT CLEANSER” (THE TRUSTEES OF COLUMBIA UNIVERSITY IN THE CITY OF, priority 2007, published 2010)

System: S. aureus
Experiment: Antiseptics and combinations in soap base C, mixed one minute with S. aureus
Type: cell-based
Conditions: antiseptics in soap base C; for Colony counts: 0.1 ml of 10^8 cfu/ml S. aureus mixed for one minute; for Log10 reduction from Control: S. aureus, one minute, control = soap base
Method: To 0.9 ml of the base, 0.1 ml of 10^8 cfu/ml of S. aureus was added and mixed for one minute, after which 9.0 ml of drug inactivating media was added. The samples were mixed well and serial dilutions were made with drug inactivating media. Various dilutions were plated on TSA plates. As the control, […] of soap base was used.

| Molecule | Colony counts | Log10 reduction from Control |
| --- | --- | --- |
| N=C(NCCCCCCNC(=N)NC(=N)Nc1ccc(Cl)cc1)NC(=N)Nc1ccc(Cl)cc1.O=C(O)[C@H](O)[C@@H](O)[C@H](O)[C@H](O)CO.O=C(O)[C@H](O)[C@@H](O)[C@H](O)[C@H](O)CO [0.2% CHG, Chlorhexidine gluconate] | 4.1 × 10^6 | 0.92 |
| Oc1cc(Cl)ccc1Oc1ccc(Cl)cc1Cl [0.5% TC, Triclosan] | 4.3 × 10^6 | 0.89 |
| CC(C)(C)CC(C)(C)c1ccc(OCCOCC[N+](C)(C)Cc2ccccc2)cc1.[Cl-] [0.18% BZT, Benzathonium chloride] | 3.9 × 10^6 | 0.94 |
| Polyhexamethylene biguanide [0.3% PHMB] | 2.0 × 10^6 | 1.17 |
